“And” between values parts separate entries of the source, which are not always exact repeats. Equal values may be shown once.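 Interpolation was linear, between the two tested concentrations surrounding the appropriate level; five concentrations were tested over 48 hours in 96-well plates. Here, GI50 denotes the concentration required for 50% inhibition of growth. TGI denotes the concentration required for complete inhibition of growth.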
Tests used:
Assay in all cases: DTP human tumour cell line panel, 48 h
SK-MEL-28 melanoma = tested on: SK-MEL-28 melanoma
SK-MEL-2 melanoma = tested on: SK-MEL-2 melanoma
SN12C renal = tested on: SN12C renal
TK-10 renal = tested on: TK-10 renal
HCT-15 colon = tested on: HCT-15 colon
SK-MEL-5 melanoma = tested on: SK-MEL-5 melanoma
A498 renal = tested on: A498 renal
UACC-257 melanoma = tested on: UACC-257 melanoma
T-47D breast = tested on: T-47D breast
PC-3 prostate = tested on: PC-3 prostate

Compound	GI50 (SK-MEL-28 melanoma)	TGI (SK-MEL-28 melanoma)	GI50 (SK-MEL-2 melanoma)	TGI (SK-MEL-2 melanoma)	GI50 (SN12C renal)	TGI (SN12C renal)	GI50 (TK-10 renal)	TGI (TK-10 renal)	GI50 (HCT-15 colon)	TGI (HCT-15 colon)	GI50 (SK-MEL-5 melanoma)	TGI (SK-MEL-5 melanoma)	TGI (A498 renal)	TGI (UACC-257 melanoma)	GI50 (UACC-257 melanoma)	GI50 (T-47D breast)	TGI (T-47D breast)	GI50 (A498 renal)	GI50 (PC-3 prostate)	TGI (PC-3 prostate)
O=c1c2ccccc2c(=O)n2n1-c1cccc(c1)CSSCc1cccc-2c1	> 100 µM	> 100 µM	> 100 µM	> 100 µM	> 100 µM	> 100 µM	> 100 µM	> 100 µM	> 100 µM	> 100 µM	> 100 µM	> 100 µM	–	–	–	–	–	–	–	–
CC1COS(=O)N1c1ccccc1 (centres undefined)	–	> 100 µM	–	> 100 µM	–	–	–	> 100 µM	–	> 100 µM	–	> 100 µM	> 100 µM	> 100 µM	–	–	–	–	–	–
CCOc1ccc2c(c1)[n+]([O-])c(C(N)=O)c(N)[n+]2[O-]	–	> 100 µM	–	> 100 µM	–	> 100 µM	–	–	–	–	–	> 100 µM	> 100 µM	> 100 µM	–	–	–	–	–	–
O=C1C2C3SC(c4cc5ccccc5cc43)C2C(=O)N1c1ccccc1 (centres undefined)	–	> 100 µM	–	> 100 µM	–	> 100 µM	–	> 100 µM	–	> 100 µM	–	> 100 µM	> 100 µM	> 100 µM	–	–	–	–	–	–
O=C1CN=C(c2ccccc2)c2ccncc2N1	–	> 100 µM	–	> 100 µM	–	> 100 µM	–	> 100 µM	–	–	–	> 100 µM	> 100 µM	72.5 µM	–	–	–	–	–	–
N#Cc1cnc2ccc(NCc3cnc[nH]3)cc2c1Nc1ccc(F)c(Cl)c1	17.3 µM	58.4 µM	6.34 µM	> 100 µM	4.17 µM	> 100 µM	2.77 µM	97.2 µM	> 100 µM	> 100 µM	19 µM	> 100 µM	–	> 100 µM	86 µM	4.68 µM	> 100 µM	–	–	–
C/C(=C1\C(=O)Nc2ccccc21)c1cccc(/C(C)=C2/C(=O)Nc3ccccc32)n1	31.5 µM	> 100 µM	63.4 µM	> 100 µM	15.6 µM	54.7 µM	–	–	4.21 µM	34.9 µM	5.67 µM	25.4 µM	34.8 µM	86 µM	9.43 µM	4.63 µM	> 100 µM	4.44 µM	24.4 µM	> 100 µM
CC(NC(=O)c1ccc(Cl)c(Cl)c1)c1ccc(-c2ccccc2)cc1 (centres undefined)	–	> 100 µM	–	> 100 µM	–	> 100 µM	–	68.7 µM	–	> 100 µM	–	> 100 µM	> 100 µM	> 100 µM	–	–	–	–	–	> 100 µM
CSC(=Nc1ccc([N+](=O)[O-])cc1C#N)NC(=O)c1ccccc1	–	> 100 µM	–	–	–	> 100 µM	–	> 100 µM	–	> 100 µM	–	> 100 µM	> 100 µM	> 100 µM	–	–	–	–	–	–
O=c1cc(-c2cccc(Cl)c2)[nH]c2cc3c(cc12)OCO3	–	–	–	0.582 µM and 0.72 µM	0.522 µM	75 µM and 12.5 µM	–	39.3 µM and 22.4 µM	–	2.81 µM	0.164 µM	–	36.9 µM and 29.6 µM	> 100 µM	–	–	65.3 µM	1.04 µM	–	> 100 µM
O=C(O)c1ccccc1NS(=O)(=O)c1ccc(Cl)cc1	–	> 100 µM	–	> 100 µM	–	> 100 µM	–	> 100 µM	–	> 100 µM	–	> 100 µM	–	> 100 µM	–	–	–	–	–	–
CN(N=O)C(=O)NC(CCCCNC(=O)OCc1ccccc1)C(=O)OCc1ccccc1 (centres undefined)	–	56.1 µM	–	85.5 µM	–	31.9 µM	–	> 100 µM	–	> 100 µM	–	45.4 µM	> 100 µM	33.5 µM	–	–	–	–	–	–
CC(C)N1CCOC(c2ccc(O)c(O)c2)C1 (centres undefined)	–	> 100 µM	–	> 100 µM	–	> 100 µM	–	> 100 µM	–	> 100 µM	–	> 100 µM	–	> 100 µM	–	–	–	–	–	–
CCN(CC)CC(C(=O)Nc1c(C)cccc1C)/C(C)=N\NC(=S)NN (centres undefined)	–	> 100 µM	–	> 100 µM	–	–	–	> 100 µM	–	–	–	> 100 µM	> 100 µM	> 100 µM	–	–	–	–	–	–
Cc1cccc(-c2nc(=S)[nH][nH]2)c1	–	> 100 µM	–	> 100 µM	–	> 100 µM	–	> 100 µM	–	> 100 µM	–	> 100 µM	> 100 µM	> 100 µM	–	–	–	–	–	–
O=C1c2ccccc2C(=O)N1C/C=N/NS(=O)(=O)c1cccc([N+](=O)[O-])c1	–	–	–	> 100 µM	–	> 100 µM	–	> 100 µM	–	> 100 µM	–	> 100 µM	> 100 µM	> 100 µM	–	–	–	–	–	–
CC(C)CC(NC(=O)C(O)C(N)Cc1ccccc1)C(=O)O (centres undefined)	–	> 100 µM	–	> 100 µM	–	> 100 µM	–	> 100 µM	–	> 100 µM	–	> 100 µM	–	> 100 µM	–	–	> 100 µM	–	–	> 100 µM
NCCNCCNCc1c2ccccc2c(CNCCNCCN)c2ccccc12	–	> 100 µM	–	> 100 µM	–	> 100 µM	–	> 100 µM	–	> 100 µM	–	> 100 µM	–	> 100 µM	–	–	–	–	–	–
COc1ccc(-c2nn3ncccc3c2-c2ccnc(Nc3ccc(F)c(F)c3)n2)cc1	17.8 µM	> 25 µM	–	–	10.4 µM	> 25 µM	14.3 µM	> 25 µM	8.77 µM	> 25 µM	8.08 µM	> 25 µM	> 23 µM	> 25 µM	12 µM	6.42 µM	> 25 µM	3.96 µM	8.7 µM	> 25 µM
CC[O-].CC[O-].[O-]c1ccccc1C=NC12CC3CC(CC(C3)C1)C2.[O-]c1ccccc1C=NC12CC3CC(CC(C3)C1)C2.[Ti+4]	> 100 µM	> 100 µM	35.8 µM	> 100 µM	86.4 µM	> 100 µM	> 100 µM	> 100 µM	–	–	19.9 µM	> 100 µM	–	> 100 µM	> 100 µM	–	–	–	–	–
CS(=O)(=O)N(CCC#N)c1ccc(/C=C2\N=C(c3ccccc3Cl)OC2=O)cc1	–	> 100 µM	–	> 100 µM	–	> 100 µM	–	> 100 µM	–	> 100 µM	–	> 100 µM	> 100 µM	> 100 µM	–	–	–	–	–	–
O=S1(=O)[C@H](c2ccccc2)c2c(-c3ccccc3)sc(-c3ccccc3)c2[C@@H]1c1ccccc1	–	> 100 µM	–	> 100 µM	–	> 100 µM	–	> 100 µM	–	> 100 µM	–	> 100 µM	–	> 100 µM	–	–	–	–	–	–
CC1=NC2(C(=O)O)C3(C(=O)O)N=C(C)OC3(C(F)(F)F)C2(C(F)(F)F)O1 (centres undefined)	–	> 100 µM	–	> 100 µM	–	> 100 µM	–	> 100 µM	–	–	–	–	> 100 µM	> 100 µM	–	–	–	–	–	–
CCN(CC)C(=O)c1cccc2c(OC)ccc(OC)c12	–	> 100 µM	–	> 100 µM	–	> 100 µM	–	> 100 µM	–	> 100 µM	–	> 100 µM	> 100 µM	> 100 µM	–	–	–	–	–	–

From PubChem BioAssay (NCI)
